Experimental data as given in article PMC9781010, “Polyphenolic Compounds Isolated from Marine Algae Attenuate the Replication of SARS-CoV-2 in the Host Cell through a Multi-Target Approach of 3CL^pro and PL^pro” (Marine Drugs, 2022).
Like-named read-outs stand apart in the source and are kept apart here.

Experiments:
[1] = target: PL^pro (SARS-CoV-2) (Severe acute respiratory syndrome coronavirus 2, UniProt P0DTD1); assay: biochemical; assay type: biochemical; conditions: for Mode of inhibition (Lineweaver–Burk plot): PL^pro, Vmax unchanged, Km increased with inhibitor concentration
[2] = target: 3CL^pro (UniProt P0DTD1); assay: Cell-based 3CLpro cleavage inhibition assay (dual luciferase, Vero-E6 cells); parameters: species or system SARS-CoV-2
[3] = tested on: SARS-CoV-2; assay: Cytopathic effect (CPE) reduction assay; assay type: cell-based; conditions: for CPE reduction / inhibitory activity against SARS-CoV-2 (in words): no concentration stated
Method: The CPE reduction assay was performed according to the previously reported method. Briefly, the cells were seeded with 5 × 10^4 cells/well in a 96-well plate and incubated at 37 °C for 48 h. A total of 100 µL of the virus was treated in each well using DMEM media that was FBS free and 1% antibiotic to infect a 0.01 multiplicity of infection (MOI) and incubated for an additional 1 h at 37 °C. Subsequently, the infected cells were treated with samples after removing the virus and 72 h of incubation was performed, and the MTT solution was added and allowed to stand for a 4 h incubation period. The formazan crystals were dissolved and the absorbance was measured.

[4] = target: 3CL^pro (SARS-CoV-2) (Severe acute respiratory syndrome coronavirus 2, UniProt P0DTD1); assay: biochemical; assay type: biochemical; conditions: for Mode of inhibition (Lineweaver–Burk plot): 3CL^pro, Vmax unchanged, Km increased with inhibitor concentration
[5] = target: PL^pro (UniProt P0DTD1); assay: Cell-based PLpro cleavage inhibition assay (dual luciferase, Vero-E6 cells); parameters: species or system SARS-CoV-2
[6] = target: 3CL^pro (UniProt P08659+P0DTD1); assay: Cell-based 3CLpro cleavage inhibition assay (dual luciferase, Vero-E6 cells); parameters: species or system SARS-CoV-2; conditions: cell-based
[7] = target: PL^pro (UniProt P08659+P0DTD1); assay: Cell-based PLpro cleavage inhibition assay (dual luciferase, Vero-E6 cells); parameters: species or system SARS-CoV-2; conditions: cell-based
[8] = cell-free cleavage of PL^pro, fluorogenic substrate, read-out: IC50 Value
[9] = at 6.25 µM, compared to Dieckol
[10] = cell-free cleavage of 3CL^pro, fluorogenic substrate, read-out: IC50 Value

3CL^pro (UniProt P0DTD1), sequence (P08659 whole entry, looked up, other chains not shown): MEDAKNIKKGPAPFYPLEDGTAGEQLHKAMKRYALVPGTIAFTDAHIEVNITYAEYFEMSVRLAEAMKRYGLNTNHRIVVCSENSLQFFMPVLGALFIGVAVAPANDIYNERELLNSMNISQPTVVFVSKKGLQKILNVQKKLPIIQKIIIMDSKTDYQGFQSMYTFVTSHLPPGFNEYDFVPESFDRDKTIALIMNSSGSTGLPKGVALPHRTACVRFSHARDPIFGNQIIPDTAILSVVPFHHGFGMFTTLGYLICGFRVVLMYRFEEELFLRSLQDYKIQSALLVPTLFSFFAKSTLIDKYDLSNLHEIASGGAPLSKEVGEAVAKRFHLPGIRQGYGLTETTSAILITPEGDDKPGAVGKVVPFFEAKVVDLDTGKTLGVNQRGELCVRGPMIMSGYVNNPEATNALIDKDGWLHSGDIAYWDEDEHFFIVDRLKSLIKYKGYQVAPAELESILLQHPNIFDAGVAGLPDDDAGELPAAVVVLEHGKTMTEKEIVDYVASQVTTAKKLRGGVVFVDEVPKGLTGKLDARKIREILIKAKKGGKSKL
PL^pro (UniProt P0DTD1), sequence (P08659 whole entry, looked up, other chains not shown): as above
3CL^pro (UniProt P08659+P0DTD1), sequence (P08659 whole entry, looked up, other chains not shown): as above
PL^pro (UniProt P08659+P0DTD1), sequence (P08659 whole entry, looked up, other chains not shown): as above

Compound	IC50 [1] [µM]	Mode of inhibition (Lineweaver–Burk plot) [1]	Cell-based inhibitory activity against proteolytic activity (in words) [2]	CPE reduction / inhibitory activity against SARS-CoV-2 (in words) [3]	IC50 [4] [µM]	Mode of inhibition (Lineweaver–Burk plot) [4]	Cell-based inhibitory activity against proteolytic activity (in words) [5]	IC50 [1, 8] [µM]	CPE reduction activity [3, 9]	CPE reduction activity ([3]; at 25 µM)	IC50 [4, 10] [µM]	Concentrations with significant and dose-dependent inhibitory activity [6] [µM]	Concentrations with significant and dose-dependent inhibitory activity [7] [µM]
Oc1cc(O)cc(Oc2c(O)cc(O)c3c2Oc2c(O)cc(Oc4c(O)cc(Oc5c(O)cc(O)c6c5Oc5c(O)cc(O)cc5O6)cc4O)cc2O3)c1 [Dieckol]	19.74 ± 0.09	competitive inhibitors	significant and dose-dependent inhibitory activities	dose-dependent inhibitory activity	5.49 ± 0.092	competitive inhibitors	significant and dose-dependent inhibitory activities						
Oc1cc(O)cc(Oc2c(O)cc3c(c2O)Oc2cc(Oc4c(O)cc(O)cc4O)c(O)c(O)c2O3)c1 [Diphlorethohydroxycarmalol]		competitive inhibitors	significant and dose-dependent inhibitory activities	greater activities than IPA		competitive inhibitors	significant and dose-dependent inhibitory activities	6.637 ± 0.056	great CPE reduction activity	greatest CPE reduction activity	3.12 ± 0.066		
Oc1cc(O)c(Oc2cc(O)cc(O)c2-c2c(O)cc(O)cc2Oc2c(O)cc(O)cc2Oc2c(O)cc(O)c3c2Oc2c(O)cc(O)cc2O3)c(O)c1 [Eckmaxol]		competitive inhibitors	significant and dose-dependent inhibitory activities	greater activities than IPA		competitive inhibitors	significant and dose-dependent inhibitory activities	19.83 ± 0.121	great CPE reduction activity		1.89 ± 0.078		
Oc1cc(O)cc(Oc2cc(O)c(Oc3c(O)cc(O)cc3Oc3cc(O)c(Oc4cc(O)cc(O)c4Oc4cc(O)cc(O)c4Oc4cc(O)cc(O)c4Oc4cc(O)c(Oc5c(O)cc(O)cc5Oc5c(O)cc(Oc6c(O)cc(Oc7c(O)cc(Oc8c(O)cc(Oc9c(O)cc(Oc%10c(O)cc(Oc%11c(O)cc(O)cc%11O)cc%10O)cc9O)cc8O)cc7O)cc6O)cc5O)c(O)c4)c(O)c3)c(O)c2)c1 [Ishophloroglucin A]		competitive inhibitors	greatest inhibitory activity			competitive inhibitors	greatest inhibitory activity	1.405 ± 0.007	great CPE reduction activity		0.481 ± 0.031	6.29 to 75.52	12.59 to 75.52
